Paper PMC3510433, “Adamantyl carboxamides and acetamides as potent human 11β-hydroxysteroid dehydrogenase type 1 inhibitors” (Bioorganic & Medicinal Chemistry, 2012)
Marks after values point to notes of the source that are not given here.

Experiments:
[1] = target: T1, human 11β-HSD1 (Homo sapiens, UniProt P28845); experiment: 11β-HSD1 inhibition, human HEK-293 cell based assay (SPA); conditions: for 11β-HSD1 inhibitory activity (in words): at 1 μM where stated; for inhibition at 1 µM: HEK293, read-out: Percentage of inhibition measured at 1 μM
T1 construct: expressed in transfected cells; host or cells: HEK-293 (human), stably transfected
Method: 11β-HSD1 inhibition was measured in intact human HEK-293 cells to reveal the true inhibitory activity. Differences in observed effects for different compounds may reflect combinatorial factors including the ability to penetrate the cell membrane, the stability within the cell and the binding ability to the enzyme.
The cell-based assays were conducted on the human HEK-293 cell line stably transfected with the HSD11B1 gene.[28] 11β-HSD1 activity was determined by measuring the amount of tritiated product formed using a scintillation proximity assay (SPA).
Cells were incubated in 96-well micro-plates in the presence of tritiated cortisone substrate and the assay plates contained internal high and low controls to allow calculation of percentage inhibition. Each well of a 96-well culture plate was seeded with human 11β-HSD1 overexpressed HEK293 cells in 100 μL medium. When the cells were 80% confluent, the medium was removed from each well then 100 μL of fresh, serum-free, medium containing ^3H-cortisone (22 nM) and test compound in 1% DMSO was added. The control wells were also dispensed. […] The plate was incubated at 37 °C for 2 h, after which 50 μL of medium was removed from each well and transferred to a microplate containing 100 μL of a pre-incubated mixture of anti-cortisol antibody and SPA bead. The mixture was incubated with gentle shaking until equilibrium was reached, before transferring to a scintillation counter to establish the enzyme activity in each sample.
The compounds were initially tested at a concentration of 1 μM. Those compounds showing over 70% inhibition of 11β-HSD1 at 1 μM were subjected to an IC50 measurement. A Merck compound 544 was used as the reference compound in the assay (IC50 = 50 ± 20 nM).[19] The IC50 values are reported as the mean value of 3 measurements with variance less than 20%. IC50 values were calculated from the dose-response curve using Microsoft Excel add-in XLfit with a Four Parameter Logistic nonlinear regression model.

[2] = HEK-293 cells stably transfected with HSD11B1, mean of 3 measurements
[3] = 1 μM, HEK-293 cells transfected with HSD11B1

T1 sequence (P28845 whole entry): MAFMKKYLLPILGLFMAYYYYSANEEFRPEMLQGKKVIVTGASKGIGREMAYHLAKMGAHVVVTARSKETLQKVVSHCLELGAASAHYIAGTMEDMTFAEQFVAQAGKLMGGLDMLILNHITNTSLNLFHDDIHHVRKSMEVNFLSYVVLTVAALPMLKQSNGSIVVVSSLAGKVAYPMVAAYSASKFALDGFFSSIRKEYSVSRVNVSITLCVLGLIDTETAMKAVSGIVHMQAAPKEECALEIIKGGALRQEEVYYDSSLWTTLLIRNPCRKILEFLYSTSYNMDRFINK

Compound | IC50 [1, 2] | melting point | inhibition at 1 µM [1, 3] | further results
O=C(NCc1cccs1)C12CC3CC(CC(C3)C1)C2 [Compound 5] | 0.403 µM |  |  | 
Cc1ccsc1CN(C)C(=O)C12CC3CC(CC(C3)C1)C2 [Compound 6, N-Methyl-N-((3-methylthiophen-2-yl)methyl)adamantane-1-carboxamide] | 0.275 µM | 72 to 73.5 °C |  | 11β-HSD1 inhibitory activity (in words) [1]: retains nearly the same activity as parent compound 3
CN(Cc1sccc1N)C(=O)C12CC3CC(CC(C3)C1)C2 [Compound 7, N-((3-Aminothiophen-2-yl)methyl)-N-methyladamantane-1-carboxamide] |  | 117 to 119 °C | 12% | 11β-HSD1 inhibitory activity (in words) [1]: sharp decrease of activity
Cc1csc(CN(C)C(=O)C23CC4CC(CC(C4)C2)C3)c1 [Compound 8, N-Methyl-N-((4-methylthiophen-2-yl)-methyl)adamantane-1-carboxamide] |  | 87 to 88 °C | 55% | 11β-HSD1 inhibitory activity (in words) [1]: weak inhibition
Cc1csc(CNC(=O)C23CC4CC(CC(C4)C2)C3)c1 [Compound 9, N-((4-Methylthiophen-2-yl)methyl)-adamantane-1-carboxamide] |  | 127 to 128.5 °C | 8% | 
Cc1ccc(CN(C)C(=O)C23CC4CC(CC(C4)C2)C3)s1 [Compound 10, N-Methyl-N-((5-methylthiophen-2-yl)-methyl)adamantane-1-carboxamide] |  | 83 to 85.5 °C | 32% | 11β-HSD1 inhibitory activity (in words) [1]: weak inhibition
CN(Cc1ccc(Cl)s1)C(=O)C12CC3CC(CC(C3)C1)C2 [Compound 11, N-((5-Chlorothiophen-2-yl)methyl)-N-methyladamantane-1-carboxamide] |  | 92 to 94 °C | 29% | 11β-HSD1 inhibitory activity (in words) [1]: weak inhibition
CN(Cc1ccsc1)C(=O)C12CC3CC(CC(C3)C1)C2 [Compound 12] | 0.125 µM |  |  | 
CN(Cc1ccco1)C(=O)C12CC3CC(CC(C3)C1)C2 [Compound 13] | 0.249 µM |  |  | 
O=C(NCc1ccco1)C12CC3CC(CC(C3)C1)C2 [Compound 14, N-(Furan-2-ylmethyl)adamantane-1-carboxamide] |  | 69 to 72 °C | 68% | 
Cc1csc(CN(C)C(=O)C23CC4CC(CC(C4)C2)C3)n1 [Compound 19, N-Methyl-N-((4-methylthiazol-2-yl)-methyl)adamantane-1-carboxamide] |  |  | 31% | 
O=C(NCc1cccnc1)C12CC3CC(CC(C3)C1)C2 [Compound 25, N-(Pyridin-3-ylmethyl)adamantane-1-carboxamide] | 0.676 µM |  |  | 
CN(CCc1cccs1)C(=O)C12CC3CC(CC(C3)C1)C2 [Compound 28] | 0.448 µM |  |  | 
O=C(NCCc1cccs1)C12CC3CC(CC(C3)C1)C2 [Compound 29] | 0.679 µM |  |  | 
O=C(CC12CC3CC(CC(C3)C1)C2)NCc1ccccn1 [Compound 38, 2-(Adamantan-1-yl)-N-(pyridin-2-yl-methyl)acetamide] |  |  |  | Percentage of inhibition measured at 1 μM [1, 3]: 26% ^a
CN(Cc1cccs1)C(=O)C1(C)CCCCC1 [Compound 40, N,1-Dimethyl-N-(thiophen-2-ylmethyl)cyclohexanecarboxamide] | 3.6 µM |  |  | 
CN(Cc1cccs1)C(=O)C1(c2ccc(Cl)cc2)CC1 [Compound 42, 1-(4-Chlorophenyl)-N-methyl-N-(thio-phen-2-ylmethyl) cyclopropanecarbox-amide] | 1.55 µM |  |  | IC50 ([1]; HEK-293 cells): ~1.6 µM; fold loss of activity in comparison with 41 ([1]; vs compound 41): ~5.5 fold
CN(Cc1cccs1)C(=O)C1(c2ccc(Cl)cc2)CCC1 [Compound 43, 1-(4-Chlorophenyl)-N-methyl-N-(thio-phen-2-ylmethyl)cyclobutanecarbox-amide] | 0.385 µM |  |  | 
C1CCc2nnc(C34CC5CC(CC(C5)C3)C4)n2CC1 [Merck compound 544, reference compound] | 0.05 ± 0.02 µM |  |  | 
